Each block holds one compound with its values, some of them ahead of it.
Tests used:
Type in all cases: cell-based
A549/DDP = experiment: MTT cytotoxicity, cisplatin-resistant A549/DDP; conditions: Ir-cR8 24 h, cisplatin 48 h, unit inferred, test concentrations in μM, read-out: Antiproliferative activity (IC50) A549/DDP
Procedure: (Waters Corp., USA) The gradient mobile phase consisted of acetonitrile (A) and H2O (B) both containing […] A typical 15 min sample run consisted of 2 min of 20% solvent A and 80% solvent B followed by an increment of solvent A up to 23% for the remaining 2 min. Then the proportion of solvent A was increased to 45% in the following 8 min and decreased to 20% in the last 3 min. The analytes were monitored by a photo diode array (PDA) detector set at 220 nm and 254 nm and the flow rate was set to 0.3 mL min-1. The separated metallopeptides were collected to lyophilized and quantified by ICP-MASS, then for MTT assay. Circular dichroism assay of Ir-peptides […] The collected Ir- peptides were lyophilized and quantified by ICP-MASS. The Ir-peptides, isomers, mixture of two isomers were diluted to same concentration for circular dichroism test. (Chirascan-plus, Applied photophysics) LogP assay Water and octanol (1:1, v/v) were saturated for 24 h at room temperature and separated as aqueous phase and oil phase. Ir- […] […] CCK-8 of 20 μL was added in each well and incubated for 4 h, then the absorbance at 450 nm of each well was obtained by microplate spectrophotometer to calculate the cell viability. […] The absorbance […]

HL60/Ara-C = experiment: CCK-8 cytotoxicity, cytarabine-resistant HL60/Ara-C; conditions: Homo sapiens, HL-60; read-out: Antiproliferative activity (IC50) HL60/Ara-C
HL60 = experiment: CCK-8 cytotoxicity, HL60; conditions: Homo sapiens, HL-60; read-out: Antiproliferative activity (IC50) HL60
HL60/ADR = experiment: CCK-8 cytotoxicity, doxorubicin-resistant HL60/ADR; conditions: Homo sapiens, read-out: Antiproliferative activity (IC50) HL60/ADR
A549/Taxol = experiment: MTT cytotoxicity, paclitaxel-resistant A549/Taxol; conditions: read-out: Antiproliferative activity (IC50) A549/Taxol
Procedure: mm × 2.1 mm column. (Waters Corp., USA) The gradient mobile phase consisted of acetonitrile (A) and H2O (B) both containing
0.1% trifluoroacetic acid. A typical 15 min sample run consisted of 2 min of 20% solvent A and 80% solvent B followed by an
increment of solvent A up to 23% for the remaining 2 min. Then the proportion of solvent A was increased to 45% in the
following 8 min and decreased to 20% in the last 3 min. The analytes were monitored by a photo diode array (PDA) detector
set at 220 nm and 254 nm and the flow rate was set to 0.3 mL min-1. The separated metallopeptides were collected to
lyophilized and quantified by ICP-MASS, then for MTT assay.
Circular dichroism assay of Ir-peptides
peptides were lyophilized and quantified by ICP-MASS. The Ir-peptides, isomers, mixture of two isomers were diluted to same
concentration for circular dichroism test. (Chirascan-plus, Applied photophysics)
Water and octanol (1:1, v/v) were saturated for 24 h at room temperature and separated as aqueous phase and oil phase. Ir- […]
the standard curves by fluorescence spectrophotometer, Ex Slit:5.0 nm, Em Slit:5.0 nm, 650 V. Then the aqueous phase’s
fluorescence intensities in samples containing both oil and aqueous phases were scanned, the concentration in aqueous phase
of each Ir-peptide was calculated by standard curve, the Ir-peptide’s initial concentration in aqueous phase minus 24 hour’s […]

HeLa cells = conditions: 24 h
Procedure: (Waters Corp., USA) The gradient mobile phase consisted of acetonitrile (A) and H2O (B) both containing […] A typical 15 min sample run consisted of 2 min of 20% solvent A and 80% solvent B followed by an increment of solvent A up to 23% for the remaining 2 min. Then the proportion of solvent A was increased to 45% in the following 8 min and decreased to 20% in the last 3 min. The analytes were monitored by a photo diode array (PDA) detector set at 220 nm and 254 nm and the flow rate was set to 0.3 mL min-1. The separated metallopeptides were collected to lyophilized and quantified by ICP-MASS, then for MTT assay. Circular dichroism assay of Ir-peptides […] The collected Ir- peptides were lyophilized and quantified by ICP-MASS. The Ir-peptides, isomers, mixture of two isomers were diluted to same concentration for circular dichroism test. (Chirascan-plus, Applied photophysics) LogP assay Water and octanol (1:1, v/v) were saturated for 24 h at room temperature and separated as aqueous phase and oil phase. Ir- […] Samples were stirred for 24 h at room […] the standard curves by fluorescence spectrophotometer, Ex Slit:5.0 nm, Em Slit:5.0 nm, 650 V. Then the aqueous phase's fluorescence intensities in samples containing both oil and aqueous phases were scanned, the concentration in aqueous phase of each Ir-peptide was calculated by standard curve, the Ir-peptide's initial concentration in aqueous phase minus 24 hour's concentration in aqueous phase to obtain the 24 hour's concentration in oil phase, logP=log(c oil/caqueous). Cell culture […] cells were incubated in RPMI 1640 medium with 10% fetal bovine serum, 37 °C, 5%CO2. […] Pharmacology Department, College of Pharmaceutical Sciences, Soochow University. […] obtained from Institute of Hematology and Blood Diseases Hospital, Chinese Academy of Medical Sciences & Peking Union Medical College. Induction of cisplatin resistant A549/DDP cells […] entering the logarithmic growth period. Then the medium was replaced by DMEM medium containing 10% fetal bovine serum and 0.125 μM cisplatin. The cells were incubated with cisplatin for 24 h and the medium was removed and no cisplatin DMEM […] The induction followed this […] The concentration of cisplatin was twice as much as before in each induction. Then the cells were incubated with DMEM containing 10% fetal bovine serum and 4 μM cisplatin for two months and medium containing cisplatin was replaced by no-cisplatin medium two weeks before experiment. Cytotoxicity HeLa cells were cultured in 96-well microplates, 8*10^3 cells per well overnight. […] CCK-8 of 20 μL was added in each well and incubated for 4 h, then the absorbance at 450 nm of each well was obtained by microplate spectrophotometer to calculate the cell viability. […] The absorbance […]

Compound: N.N.[Cl][Pt][Cl] [Cisplatin, cisplatin]
IC50 (A549/DDP): > 128 µM

Compound: Nc1ccn([C@@H]2O[C@H](CO)[C@@H](O)[C@@H]2O)c(=O)n1 [Cytarabine, cytarabine]
IC50 (HL60/Ara-C): > 128 µM
IC50 (HL60): 0.07 ± 0.003 µM

Compound: COc1cccc2c1C(=O)c1c(O)c3c(c(O)c1C2=O)C[C@@](O)(C(=O)CO)C[C@@H]3O[C@H]1C[C@H](N)[C@H](O)[C@H](C)O1 [Doxorubicin, doxorubicin]
IC50 (HL60): 0.13 ± 0.06 µM
IC50 (HL60/ADR): 8.3 ± 0.2 µM

Compound: CC(=O)O[C@H]1C(=O)[C@@]2(C)[C@H]([C@H](OC(=O)c3ccccc3)[C@]3(O)C[C@H](OC(=O)[C@H](O)[C@@H](NC(=O)c4ccccc4)c4ccccc4)C(C)=C1C3(C)C)[C@]1(OC(C)=O)CO[C@@H]1C[C@@H]2O [Paclitaxel, paclitaxel]
IC50 (A549/Taxol): 25.8 ± 0.5 µM

IC50 (HeLa cells): > 100 µM
Compound: Ac-HHRRR-NH2 [aR3]

IC50 (HeLa cells): > 100 µM
Compound: Ac-HHRRRR-NH2 [aR4]

IC50 (HeLa cells): > 100 µM
Compound: Ac-HRRRH-NH2 [cR3]

IC50 (HeLa cells): > 100 µM
Compound: Ac-HRRRRH-NH2 [cR4]
